Test [1] has as its system primary mouse hepatocytes. The experiment in a line: Inhibition of de novo lipid synthesis in primary hepatocytes, [1,2-14C]-sodium acetate tracer. Conditions: Hepatocyte, compound 12.5 μM, 4 h, [1,2-14C]-acetate, read-out: Lipid synthesis inhibition (%) (mean ± SD). Format: cell-based. As to the method: Primary hepatic cell isolation and walling: the mouse liver was lavaged by calcium-free perfusate, then digested using collagenase and mouse primary hepatocytes were obtained by density gradient centrifugation, and were inoculated in 6-well plates at a density of 3×10^5/ml (0.2% gelatin was coated before inoculating). After inoculating, the cells were cultured and adhered for 6 h. The medium was changed to serum-free LG-DMEM (containing 2× double antibody) and starved the cells overnight.
Isotope tracing: the next day, the medium was switched to serum-free LG-DMEM containing 10 nM insulin and the corresponding concentration of compounds (1950 μL, 4 replicate wells per group); 0.1 μCi of [1,2-^14C]-acetate serum-free medium was added to each well, and the plates were then incubated for 4 h in the incubator.
Lipid saponification: Add 1.6 mL of ice PBS to each well for washing 3 times, shake the plate to dry and add 600 μL of 0.5 M KOH to each well to lysis for 1 h. Pipette 480 μL into a glass test tube with 400 μL of 20% KOH (methanol was used as solvent), shake and mix well, and then place it in a water bath at 95° C. to saponify for 3 h. The remaining lysate was used for the determination of the concentration of proteins. Add 400 μL of petroleum ether to each tube, pipette 5-6 times and centrifuge at 2500 rpm for 5 min, take 350 μL of the upper layer of the clear solution to the EP tube, and then add 400 μL of petroleum ether to repeat the extraction for 2 times (a total of 3 times). After complete transfer of the supernatant, 200 μL of water and 400 μL of 5N sulfuric acid were added to each tube for acidification, and the mixture was shaken and mixed. Add 400 μL of petroleum ether to each tube, pipette 5-6 times and centrifuge at 2500 rpm for 5 min, take 350 μL of the upper layer of the clear solution to the EP tube, then add 400 μL of petroleum ether and repeat the extraction for 2 times (a total of 3 times). Place in a fume hood and evaporate the petroleum ether overnight.
Isotope participation quantification: 1700 μL of scintillation solution was added to each tube and read.
Data processing and analysis: Firstly, the isotopic reference (R control, unit: CCPM/mg protein) of free fatty acids and cholesterol was calculated for the Control group of untreated mouse primary hepatocytes within 4 hours, which represented the basal synthesis. The percent inhibition of lipid synthesis was then calculated for each concentration group of the sample.

The target of test [2] is T1, Human-derived ACLY protein (Homo sapiens, UniProt P53396).
T1 construct: purchased Beijing Yiqiao Shenzhou Technology Co., Ltd 11769-H07B
T1 sequence (P53396 1-1101): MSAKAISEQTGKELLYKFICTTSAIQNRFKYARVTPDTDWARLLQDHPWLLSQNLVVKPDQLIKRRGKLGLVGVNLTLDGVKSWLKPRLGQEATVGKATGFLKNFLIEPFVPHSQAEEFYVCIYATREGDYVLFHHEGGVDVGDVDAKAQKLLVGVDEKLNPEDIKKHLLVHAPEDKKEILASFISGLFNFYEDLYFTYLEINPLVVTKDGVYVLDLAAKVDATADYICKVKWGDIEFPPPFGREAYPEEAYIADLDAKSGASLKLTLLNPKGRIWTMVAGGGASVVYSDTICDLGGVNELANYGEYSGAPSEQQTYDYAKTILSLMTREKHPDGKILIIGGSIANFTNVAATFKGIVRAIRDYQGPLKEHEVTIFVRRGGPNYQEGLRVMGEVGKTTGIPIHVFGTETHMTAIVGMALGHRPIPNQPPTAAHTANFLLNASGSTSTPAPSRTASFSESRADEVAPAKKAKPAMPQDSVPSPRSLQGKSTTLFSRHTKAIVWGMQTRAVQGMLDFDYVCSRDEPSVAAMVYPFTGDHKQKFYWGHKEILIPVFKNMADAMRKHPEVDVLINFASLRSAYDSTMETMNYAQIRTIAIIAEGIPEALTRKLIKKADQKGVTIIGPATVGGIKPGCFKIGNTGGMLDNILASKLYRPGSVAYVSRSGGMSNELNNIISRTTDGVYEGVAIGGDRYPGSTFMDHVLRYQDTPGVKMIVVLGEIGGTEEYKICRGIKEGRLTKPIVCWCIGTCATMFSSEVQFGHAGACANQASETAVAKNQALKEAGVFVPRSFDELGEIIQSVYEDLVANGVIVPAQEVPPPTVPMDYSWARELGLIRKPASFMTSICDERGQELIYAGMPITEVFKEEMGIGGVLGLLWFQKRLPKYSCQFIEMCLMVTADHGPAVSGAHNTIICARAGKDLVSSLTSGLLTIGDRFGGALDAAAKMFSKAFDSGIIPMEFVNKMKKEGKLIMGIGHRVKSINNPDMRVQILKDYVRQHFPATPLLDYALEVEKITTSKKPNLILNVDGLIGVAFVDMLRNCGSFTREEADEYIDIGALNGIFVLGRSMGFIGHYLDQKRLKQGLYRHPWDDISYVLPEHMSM
The experiment in a line: ACLY citrate cleavage enzyme inhibition, ADP-Glo assay. Type of test: biochemical. Conditions: 25 nM enzyme, 30 min, 37° C., read-out: IC50 for inhibition of ACLY enzyme activity (mean ± SD). An excerpt: The ACLY-catalyzed citric acid cleavage process requires the consumption of one molecule of ATP to activate citric acid. Based on this reaction principle, the inventors utilized an ADP-Glo assay kit to detect the amount of ATP converted to ADP in response to the catalytic activity of ACLY. After the establishment of the activity measurement system and optimization of the reaction conditions, the inventors evaluated the ACLY inhibitory activity of the obtained novel ACLY small molecule inhibitors.
Activity test protocol: Human-derived ACLY protein was purchased from Beijing Yiqiao Shenzhou Technology Co., Ltd (Item No. 11769-H07B), and ADP-Glo assay kit was purchased from Promega (Item No. V9102). The total volume of the reaction was 5 μL, which consisted of a mixture of three parts: 1 μL of 2% DMSO, 2 μL of the substrate mixture, and 2 μL of the enzyme (final concentration of 25 nM). Then 1 μL of different concentrations of compounds were added for incubation. Reaction conditions: 30 min, 37° C. Then 2.5 μL of ADP Reagent from ADP-Glo Kit was used, mixed well and reacted for 2 h. 5 μL of ADP Detection was added, centrifuged and mixed well. Then the full wavelength value was read from Envision multifunctional plate reader.
Results: Firstly, the cumulative amount of fluorescence intensity of the enzyme in 30 min reaction time (RFU/min) was calculated to represent the initial velocity of the enzyme, and then the ratio of the enzyme's velocity with the addition of compounds (vsample) to the enzyme's velocity without the addition of compounds (vDMSO) was calculated to be the percentage of activity for each concentration group of the samples (Activity rate %), with the formula: % Activity=(V(sample)/(v(DMSO))×100%. The logarithmic value of the concentration was plotted against the activity percentage, and then a non-linear regression was used to calculate the fitted curve. The software GraphPad Prism 8.0 (formula log (inhibitor) vs. response—Variable slope) was used to fit the curve and calculate the IC50 value, and the results are shown in the table below.
For orientation: ADP-Glo turns the ADP formed in a reaction into a luminescent signal.

With `CC(C)(CCCC/C=C/CCCCCC(C)(C)C(=O)O)C(=O)O` [Compound A3], in test [1], the inhibition at 12.5 µM is 71.2 ± 4.3%. Also, the IC50 in test [2] stood at 85.4 ± 9.8 µM.

For orientation: inhibition means the relative decrease from the control value, in per cent. As usually defined, the IC50 is the concentration that gives 50% inhibition.

(Values after patent publication US20250144127A1, “LONG-CHAIN COMPOUND AND USE THEREOF” (Burgeon Therapeutics Co., Ltd., priority 2021, published 2025).)
